This passage reports Activity, Kq and Kd results from ChEMBL document CHEMBL2202973, “Specific interactions between adenosine and streptavidin/avidin” (Bioorg Med Chem Lett, 2012).

Active and inactive are the calls of the source. No cut-off for these calls is given here.

The target in data set [1] is Streptavidin (Streptomyces avidinii) (UniProt P22629). Kind of data set: Binding affinity to Streptomyces avidinii assessed as changes in protein fluorescence intensity by fluorescence spectral analysis method.
Sequence of Streptavidin (Streptomyces avidinii) (P22629 whole entry): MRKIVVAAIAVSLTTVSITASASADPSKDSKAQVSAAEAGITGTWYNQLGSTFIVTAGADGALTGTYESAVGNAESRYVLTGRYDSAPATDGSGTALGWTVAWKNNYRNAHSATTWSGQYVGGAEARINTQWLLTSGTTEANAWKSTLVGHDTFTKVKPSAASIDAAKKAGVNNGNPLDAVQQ
The target in data set [2] is Avidin (Gallus gallus) (UniProt P02701). Briefly: Binding affinity to chick avidin assessed as quenching rate constant by fluorescence quenching spectral method.
Sequence of Avidin (Gallus gallus) (P02701 whole entry): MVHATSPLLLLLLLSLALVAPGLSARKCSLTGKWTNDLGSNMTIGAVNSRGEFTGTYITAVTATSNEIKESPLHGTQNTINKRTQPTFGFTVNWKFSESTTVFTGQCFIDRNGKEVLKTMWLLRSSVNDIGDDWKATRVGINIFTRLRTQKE
The target in data set [3] is Streptavidin (Streptomyces avidinii) (UniProt P22629). Kind of data set: Binding affinity to Streptomyces avidinii assessed as quenching rate constant by fluorescence quenching spectral method.
For data set [4], the target named is Avidin (Gallus gallus) (UniProt P02701). Kind of data set: Binding affinity to chick avidin assessed as changes in protein fluorescence intensity in presence of biotin by fluorescence spectral analysis method.
The target in data set [5] is Avidin (Gallus gallus, UniProt P02701). Briefly: Binding affinity to chick avidin using fluorescence spectral analysis method based double reciprocal plot analysis. The following applies: read-out: Kd(app).
Sequence of Avidin (P02701 whole entry): as above
The target in data set [6] is Streptavidin (Streptomyces avidinii, UniProt P22629). Briefly: Binding affinity to Streptomyces avidinii streptavidin using fluorescence spectral analysis method based double reciprocal plot analysis. The note with it: read-out: Kd(app).
Sequence of Streptavidin (P22629 whole entry): as the sequence (P22629 whole entry) above
The target of data set [7] is Streptavidin (Streptomyces avidinii) (UniProt P22629). Kind of data set: Binding affinity to Streptomyces avidinii assessed as changes in protein fluorescence intensity in presence of biotin by fluorescence spectral analysis method.
Data set [8] concerns the target Avidin (Gallus gallus) (UniProt P02701). Briefly: Binding affinity to chick avidin assessed as changes in protein fluorescence intensity by fluorescence spectral analysis method.
Data set [9] addresses Albumin (Bos taurus, UniProt P02769). Briefly: Binding affinity to BSA assessed as changes in tryptophan fluorescence intensity by fluorescence spectral analysis method. The following applies: cattle.

Sequence of Albumin (P02769 whole entry): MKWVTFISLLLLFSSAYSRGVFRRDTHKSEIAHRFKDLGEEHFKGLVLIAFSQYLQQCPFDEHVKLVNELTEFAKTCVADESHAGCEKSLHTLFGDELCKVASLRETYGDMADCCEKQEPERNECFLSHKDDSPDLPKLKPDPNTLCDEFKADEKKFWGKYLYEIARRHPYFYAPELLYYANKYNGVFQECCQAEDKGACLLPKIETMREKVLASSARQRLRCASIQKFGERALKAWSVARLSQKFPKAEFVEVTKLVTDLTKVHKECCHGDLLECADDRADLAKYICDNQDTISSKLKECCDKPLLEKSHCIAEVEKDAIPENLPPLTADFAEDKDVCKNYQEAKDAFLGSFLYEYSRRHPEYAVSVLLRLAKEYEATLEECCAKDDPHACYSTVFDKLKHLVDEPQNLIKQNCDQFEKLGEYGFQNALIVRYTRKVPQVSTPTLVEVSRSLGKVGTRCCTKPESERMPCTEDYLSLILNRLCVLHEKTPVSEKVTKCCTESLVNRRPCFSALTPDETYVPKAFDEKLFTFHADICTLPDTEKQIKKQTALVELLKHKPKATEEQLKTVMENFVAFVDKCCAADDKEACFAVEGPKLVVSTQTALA

In the case of `Nc1ncnc2c1ncn2[C@@H]1O[C@H](COP(=O)(O)OP(=O)(O)OP(=O)(O)O)[C@@H](O)[C@H]1O`, the result in data set [1] was inactive.

Turning to `O=C(O)CCCC[C@@H]1SC[C@@H]2NC(=O)N[C@@H]21`, in data set [1], the outcome was Active.

For `Nc1ncnc2c1ncn2[C@@H]1O[C@H](CO)[C@@H](O)[C@H]1O` [ADENOSINE], the values for the Kq in [2] and in data set [3] were 1.28 ×10¹¹ L/mol/s and 8.5 ×10¹⁰ L/mol/s, respectively. Moreover, the outcome in data set [4] and in [7] was inactive. Also, the values for the Kd in [5] and in data set [6] were 117 µM and 168 µM, respectively. For the same compound, the result in data set [8] and in data set [1] was Active. In data set [9], the Activity result is on record as “Not Active”.
